From ChEMBL document CHEMBL1136705, “Analogues of dealanylalahopcin are inhibitors of human HIF prolyl hydroxylases” (Bioorg Med Chem Lett, 2003)
pIC50: −log10 of the molar value.

Target: Prolyl hydroxylase EGLN2 (Homo sapiens, UniProt Q96KS0)
Assay: Inhibitory activity against purified fusion of maltose binding with PHD1 as enzyme and […]

Chain of Prolyl hydroxylase EGLN2 (Q96KS0 whole entry, the tested form may be a part): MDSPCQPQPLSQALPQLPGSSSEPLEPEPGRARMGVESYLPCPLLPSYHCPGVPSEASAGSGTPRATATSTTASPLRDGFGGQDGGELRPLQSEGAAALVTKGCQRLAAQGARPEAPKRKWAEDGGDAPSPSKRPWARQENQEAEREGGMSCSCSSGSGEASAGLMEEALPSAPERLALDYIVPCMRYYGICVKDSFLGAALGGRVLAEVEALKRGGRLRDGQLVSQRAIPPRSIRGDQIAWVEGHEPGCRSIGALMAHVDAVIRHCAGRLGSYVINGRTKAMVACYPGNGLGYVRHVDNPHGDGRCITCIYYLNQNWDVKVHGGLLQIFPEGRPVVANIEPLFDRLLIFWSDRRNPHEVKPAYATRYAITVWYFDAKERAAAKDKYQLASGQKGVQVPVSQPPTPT

- pIC50: 3.00
SMILES: O=C(O)CC1CC(=O)N(O)C1=O (racemic)
